# Results as given in patent US12239134B2, “Plant antimicrobial compositions including an emulsifier and/or ozone and methods of use” (Arizona Board of Regents on Behalf of The University of …, priority 2018, dated 2025).
# Columns and labels:
# total plate counts = settings: Wang et al. 2004; cited from earlier work
# [1] = tested on: Salmonella enterica serovar Newport SN78; assay: Ozone-plant antimicrobial wash of inoculated iceberg lettuce leaves; type: cell-based; settings: ozonated wash
# Procedure: Bacterial culture: Salmonella enterica serovar Newport SN78 (bovine isolate; provided by Dr. Marilyn Erickson, University of Georgia, Griffin, GA) was used for this experiment. Dual antibiotic resistance (100 μg/ml ampicillin and 25 μg/ml streptomycin, Amresco, Solon, OH) was developed in the strain through incremental antibiotic exposure. […] The frozen stock culture was initially revived through two transfers into brain heart infusion broth (BHIB) (Becton, Dickinson and Co (BD), Sparks, MD) followed by isolation on xylose lysine desoxycholate (XLD) agar (Becton, Dickinson and Co (BD), Sparks, MD) containing 100 μg/ml ampicillin and 25 μg/ml streptomycin.
# Inoculum Preparation: For each experiment, a 20 hour overnight culture was prepared by inoculating 100 μl of the culture in 30 ml of tryptic soy broth (TSB) containing 100 μg/ml ampicillin and 25 μg/ml streptomycin and incubating at 37° C. in a desktop orbital shaker at 200 rpm (MaxQ 4450, Thermo Scientific, Dubuque, IA, USA). The cells in the medium were pelleted by centrifugation at 4000 g (Eppendorf Model 5810, Hamburg, Germany) and the supernatant was discarded. […]. The four outer leaves of the iceberg lettuce were removed and discarded. Whole leaf samples (10 g±0.5 g each) were used. The iceberg lettuce samples were inoculated by immersing 10 g portions into the PBS-S. Newport suspension for 2 minutes. After immersion, the excess culture suspension was allowed to drain from the leaf and the leaves were allowed to dry in a biohood for 1 hour to aid in the attachment of S. Newport to the leaf surface.
# Antimicrobial wash solution preparation: The test plant-based antimicrobials used in this study consisted of oregano oil made from pure Origanum vulgare (Lhasa Karnak Company, Berkeley, California), its active component carvacrol (98% pure, molecular weight 150.2, CAS no. 499-75-2, Sigma, St. Louis, MO), olive extract (CreAgri, Hayward, CA), and quillaja saponin made from Quillaja saponaria (Sigma Aldrich, St. Louis, MO). […]
# [2] = tested on: mesophilic and psychrotrophic bacteria; settings: 3 minutes (Kim et al. 1999); cited from earlier work
compound,measurement,setting,value
"O=[O+][O-] [ozonized water, ozone]",total plate counts on cilantro leaves after treatment,total plate counts,did not decrease total plate counts
same,reduction in S. Newport population on iceberg lettuce leaves,[1]; 60 min,1.76±0.27 log CFU/g
same,reduction in S. Newport population on iceberg lettuce leaves,[1]; 90 min,1.67±0.28 log CFU/g
same,reduction in S. Newport population on iceberg lettuce leaves,[1]; 120 min,2.09±0.54 log CFU/g
same,decreased counts of mesophilic bacteria on shredded lettuce,[2],1.4 log CFU/g
same,decreased counts of psychrotrophic bacteria on shredded lettuce,[2],1.8 log CFU/g
